Results published in US20090291964A1, “Potentiators of Antibacterial Activity” (priority 2003, published 2009).
Marks after values point to notes of the source that are not given here.

What was measured:
Format in all cases: cell-based
[1] = test system: S. aureus ATCC 29213; test: Ethidium bromide efflux fluorescence assay; settings: EPIs at 4 times MEC for EtBr, A-106 at 100 μg/ml; versus control cells without EPI
Protocol: S. aureus cells were loaded with EtBr as described in Example 1. EPIs were used at 4XMEC (minimal effective concentration) (25 μg/ml reserpine; 100 μg/ml VX-710 (compound A-106 in Table A-2); 6.25 μg/ml VX-853 (compound C-9 in Table C-I), and no EPI control—as labeled). Fluorescence was continuously monitored over time at room temperature and results are an average of at least 3 replicates.
Ethidium bromide (EtBr) efflux assays with S. aureus were performed using the method described by Markham et al. (Markham, et al., “Multiple Novel Inhibitors of the NorA Multidrug Transporter of Staphylococcus aureus”, Antimicrob. Agents Chemother. 43:2404-2408 (1999)). […] Ethidium bromide efflux was determined by continuously monitoring fluorescence at an excitation wavelength of 530 nm and an emission wavelength of 600 nm in a black 96-well polystyrene plate with clear, flat bottom (Costar #3904, Cambridge, Mass.) using a SpectraMax Gemini spectrofluorimeter (Molecular Devices, Sunnydale, Calif.). […]
Markham et al., “Multiple Novel Inhibitors of the NorA Multidrug Transporter of Staphylococcus aureus”, Antimicrob. […] Since ethidium only fluoresces when it is bound to nucleic acid inside of cells, a decrease in fluorescence over time is due to active efflux. […]

[2] = test system: S. aureus K2068; test: Minimal effective concentration (MEC) of EPI for gatifloxacin; settings: for MEC: S. aureus K2068 (nonNorA pump overproducer), lowest amount of EPI which produces the maximum effect on the MIC of gatifloxacin; for MEC for gatifloxacin: efflux mutant K2068
Protocol: (§1) The MEC was determined as the minimal concentration of EPI that produced the maximal reduction in substrate MIC.
(§2) Since any given compound may be recognized by an unknown number of efflux pumps in a particular organism, we reasoned that the MEC of A-106 and C-9 should vary for different antibiotics. Also, the MEC of A-106 and C-9 should vary with the degree of efflux expression in a given strain. […] This was confirmed with two other wild type strains, SA-8325-4 and SA-1199 (Table 3).
(§3) The MEC of A-106 and C-9 for gatifloxacin was determined in these efflux mutants. […] A similar result was obtained with efflux mutant K2068, where the MEC for A-106 was 6.25 μg/ml and the MEC for C-9 was 3.1 μg/ml. […] This may reflect that either gatifloxacin is recognized by fewer pumps than EtBr or it is a poorer efflux substrate in general. This is consistent with the finding that the activity of A-106 was non-saturable for EtBr but is saturable for gatifloxacin.

[3] = test system: S. aureus SA-1199B; test: as above; settings: for MEC: S. aureus SA-1199B (NorA overproducer), lowest amount of EPI which produces the maximum effect on the MIC of gatifloxacin; for MEC for gatifloxacin: efflux mutant, strain not named in the sentence (SA-1199B by context)
Protocol: as §1, §2, §3

[4] = test system: S. aureus clinical isolates; test: MIC90 studies: fluoroquinolone susceptibility of clinical isolate panel with EPI; settings: EPI at 50 μg/ml
Protocol: Susceptibility studies with large panels of resistant clinical isolates were performed at Focus Technologies, Herndon, Va. according to NCCLS protocols (National Committee for Clinical Laboratory Standards, supra).
To be useful in combination therapy, an EPI needs to substantially reduce the MIC of an antibiotic to within the range of clinical susceptibility. Because many different resistance mechanisms are often present in clinical isolates, including the likelihood of multiple target-based mutations in addition to efflux mutations, the barrier to antibiotic efficacy is much greater. […] Oxacillin and vancomycin MICs were also determined to identify which isolates were methicillin-resistant (S. aureus) and vancomycin-resistant (E. faecalis).

[5] = test system: S. aureus ATCC 29213; test: Minimal effective concentration (MEC) of EPI for EtBr; settings: for MEC of EPI: S. aureus ATCC 29213, lowest amount of EPI which produces the maximum effect on the MIC of ethidium bromide
Protocol: as §1
(§4) The minimum effective concentration (MEC) for inhibition of EtBr efflux was determined in S. aureus, E. faecalis and S. pneumoniae for A-106 and C-9; reserpine was used as a comparator (Table 1).

[6] = test system: E. faecalis ATCC 29212; test: as above; settings: lowest amount of EPI which produces the maximum effect on the MIC of ethidium bromide
Protocol: as §1, §4

[7] = test system: S. pneumoniae ATCC 10015; test: as above; settings: lowest amount of EPI which produces the maximum effect on the MIC of ethidium bromide (reserpine: maximal subinhibitory concentration)
Protocol: as §1, §4

Compound: COc1cc(C(=O)C(=O)N2CCCC[C@H]2C(=O)OC(CCCc2cccnc2)CCCc2cccnc2)cc(OC)c1OC [A-106]
- loss of EtBr fluorescence over time (FIG. 1) [1]: much more gradual loss of fluorescence
- MEC [2]: 6.25 µg/mL
- MEC for gatifloxacin [2]: 6.25 µg/mL
- MEC [3]: 12.5 µg/mL
- MEC for gatifloxacin [3]: 12.5 µg/mL
- change of norfloxacin MIC in combination with EPI ([4]; S. aureus isolates # 3, 6, 9): reductions in MICs
- change of ciprofloxacin MIC in combination with EPI ([4]; S. aureus isolates # 3 and 5): reductions in MICs
- isolates with >2-fold decrease in the MIC for ciprofloxacin ([4]; S. aureus isolates, Table 5A): 10/15
- isolates with >2-fold decrease in the MIC for norfloxacin ([4]; S. aureus isolates, Table 5A): 13/15
- restoration of clinical susceptibility ([4]; highly fluoroquinolone-resistant strains in the panel): insufficient to restore clinical susceptibility
- Ciprofloxacin MIC with EPI ([4]; S. aureus clinical isolate 1): 0.5 µg/mL
- Norfloxacin MIC with EPI ([4]; S. aureus clinical isolate 1): 2 µg/mL
- Ciprofloxacin MIC with EPI ([4]; S. aureus clinical isolate 2): 0.12 µg/mL
- Norfloxacin MIC with EPI ([4]; S. aureus clinical isolate 2): ≦0.25 μg/ml
- Ciprofloxacin MIC with EPI ([4]; S. aureus clinical isolate 3): ≦0.06 μg/ml
- Norfloxacin MIC with EPI ([4]; S. aureus clinical isolate 3): ≦0.25 μg/ml
- Ciprofloxacin MIC with EPI ([4]; S. aureus clinical isolate 4): 64 µg/mL
- Norfloxacin MIC with EPI ([4]; S. aureus clinical isolate 4): 128 µg/mL
- Ciprofloxacin MIC with EPI ([4]; S. aureus clinical isolate 5): ≦0.06 μg/ml
- Norfloxacin MIC with EPI ([4]; S. aureus clinical isolate 5): ≦0.25 μg/ml
- Ciprofloxacin MIC with EPI ([4]; S. aureus clinical isolate 6): 8 µg/mL
- Norfloxacin MIC with EPI ([4]; S. aureus clinical isolate 6): 8 µg/mL
- Ciprofloxacin MIC with EPI ([4]; S. aureus clinical isolate 7): ≦0.06 μg/ml
- Norfloxacin MIC with EPI ([4]; S. aureus clinical isolate 7): ≦0.25 μg/ml
- Ciprofloxacin MIC with EPI ([4]; S. aureus clinical isolate 8): 0.25 µg/mL
- Norfloxacin MIC with EPI ([4]; S. aureus clinical isolate 8): 1 µg/mL
- Ciprofloxacin MIC with EPI ([4]; S. aureus clinical isolate 9): ≦0.06 μg/ml
- Norfloxacin MIC with EPI ([4]; S. aureus clinical isolate 9): ≦0.25 μg/ml
- Ciprofloxacin MIC with EPI ([4]; S. aureus clinical isolate 10): 8 µg/mL
- Norfloxacin MIC with EPI ([4]; S. aureus clinical isolate 10): 16 µg/mL
- Ciprofloxacin MIC with EPI ([4]; S. aureus clinical isolate 11): 8 µg/mL
- Norfloxacin MIC with EPI ([4]; S. aureus clinical isolate 11): 32 µg/mL
- Ciprofloxacin MIC with EPI ([4]; S. aureus clinical isolate 12): ≦0.06 μg/ml
- Norfloxacin MIC with EPI ([4]; S. aureus clinical isolate 12): ≦0.25 μg/ml
- Ciprofloxacin MIC with EPI ([4]; S. aureus clinical isolate 13): 32 µg/mL
- Norfloxacin MIC with EPI ([4]; S. aureus clinical isolate 13): 64 µg/mL
- Ciprofloxacin MIC with EPI ([4]; S. aureus clinical isolate 14): 32 µg/mL
- Norfloxacin MIC with EPI ([4]; S. aureus clinical isolate 14): 64 µg/mL
- Ciprofloxacin MIC with EPI ([4]; S. aureus clinical isolate 15): 32 µg/mL
- Norfloxacin MIC with EPI ([4]; S. aureus clinical isolate 15): 64 µg/mL
- MEC for EtBr efflux ([5]; ATCC 29213, Table 1): ≤ 100 µg/mL
- MEC of EPI [5]: ≧100 μg/ml
- MEC of EPI [6]: ≧100 μg/ml
- MEC of EPI [7]: ≧100 μg/ml

Compound: COC(=O)[C@H]1[C@H]2C[C@@H]3c4[nH]c5cc(OC)ccc5c4CCN3C[C@H]2C[C@@H](OC(=O)c2cc(OC)c(OC)c(OC)c2)[C@@H]1OC [reserpine, reference compound]
- MEC [2]: 3.1 µg/mL
- MEC [3]: 25 µg/mL
- MEC of EPI [5]: 6.3 µg/mL
- MEC of EPI [6]: ≧100 μg/ml
- MEC of EPI [7]: 25^c μg/ml

Compound: COc1cc(C(=O)C(=O)N(C)[C@@H](Cc2ccc(Cl)cc2)C(=O)N(Cc2ccccc2)C(CCc2ccncc2)CCc2ccncc2)cc(OC)c1OC [C-9, (S)—N-Benzyl-2-(methyl-(2-oxo-2-(3,4,5-trimethoxyphenyl)acetyl)amino)-3-(4-chloro-phenyl)-N-(3-pyridin-4-yl-1-(2-pyridin-4-yl-ethyl)propyl)propionamide]
- loss of EtBr fluorescence over time (FIG. 1) [1]: much more gradual loss of fluorescence
- MEC [2]: 3.1 µg/mL
- MEC for gatifloxacin [2]: 3.1 µg/mL
- MEC [3]: 3.1 µg/mL
- MEC for gatifloxacin [3]: 3.1 µg/mL
- decrease in MIC of ciprofloxacin and norfloxacin ([4]; S. aureus isolates): no significant (>2-fold) decrease in MIC
- Ciprofloxacin MIC with EPI ([4]; S. aureus clinical isolate 1): 1 µg/mL
- Norfloxacin MIC with EPI ([4]; S. aureus clinical isolate 1): 8 µg/mL
- Ciprofloxacin MIC with EPI ([4]; S. aureus clinical isolate 2): 0.5 µg/mL
- Norfloxacin MIC with EPI ([4]; S. aureus clinical isolate 2): 1 µg/mL
- Ciprofloxacin MIC with EPI ([4]; S. aureus clinical isolate 3): 1 µg/mL
- Norfloxacin MIC with EPI ([4]; S. aureus clinical isolate 3): 4 µg/mL
- Ciprofloxacin MIC with EPI ([4]; S. aureus clinical isolate 4): 64 µg/mL
- Norfloxacin MIC with EPI ([4]; S. aureus clinical isolate 4): 128 µg/mL
- Ciprofloxacin MIC with EPI ([4]; S. aureus clinical isolate 5): 1 µg/mL
- Norfloxacin MIC with EPI ([4]; S. aureus clinical isolate 5): 2 µg/mL
- Ciprofloxacin MIC with EPI ([4]; S. aureus clinical isolate 6): 32 µg/mL
- Norfloxacin MIC with EPI ([4]; S. aureus clinical isolate 6): 128 µg/mL
- Ciprofloxacin MIC with EPI ([4]; S. aureus clinical isolate 7): 0.5 µg/mL
- Norfloxacin MIC with EPI ([4]; S. aureus clinical isolate 7): 2 µg/mL
- Ciprofloxacin MIC with EPI ([4]; S. aureus clinical isolate 8): 1 µg/mL
- Norfloxacin MIC with EPI ([4]; S. aureus clinical isolate 8): 4 µg/mL
- Ciprofloxacin MIC with EPI ([4]; S. aureus clinical isolate 9): 1 µg/mL
- Norfloxacin MIC with EPI ([4]; S. aureus clinical isolate 9): 4 µg/mL
- Ciprofloxacin MIC with EPI ([4]; S. aureus clinical isolate 10): 16 µg/mL
- Norfloxacin MIC with EPI ([4]; S. aureus clinical isolate 10): 64 µg/mL
- Ciprofloxacin MIC with EPI ([4]; S. aureus clinical isolate 11): 32 µg/mL
- Norfloxacin MIC with EPI ([4]; S. aureus clinical isolate 11): 64 µg/mL
- Ciprofloxacin MIC with EPI ([4]; S. aureus clinical isolate 12): 0.25 µg/mL
- Norfloxacin MIC with EPI ([4]; S. aureus clinical isolate 12): 1 µg/mL
- Ciprofloxacin MIC with EPI ([4]; S. aureus clinical isolate 13): 64 µg/mL
- Norfloxacin MIC with EPI ([4]; S. aureus clinical isolate 13): 128 µg/mL
- Ciprofloxacin MIC with EPI ([4]; S. aureus clinical isolate 14): 64 µg/mL
- Norfloxacin MIC with EPI ([4]; S. aureus clinical isolate 14): 128 µg/mL
- Ciprofloxacin MIC with EPI ([4]; S. aureus clinical isolate 15): >64 µg/mL
- Norfloxacin MIC with EPI ([4]; S. aureus clinical isolate 15): 256 µg/mL
- MEC of EPI [5]: 1.6 µg/mL
- MEC of EPI [6]: 6.3 µg/mL
- MEC of EPI [7]: 12.5 µg/mL
